In PubChem BioAssay (NCI):
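Compound exposure: 48 hours, 5 concentrations, 96-well plates. TGI: concentration producing complete growth inhibition.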

Key:
Test in all cases: DTP human tumour cell line panel, 48 h
MDA-MB-435 = tested on: MDA-MB-435
DU-145 prostate = tested on: DU-145 prostate
SNB-75 CNS = tested on: SNB-75 CNS
SF-539 CNS = tested on: SF-539 CNS
HL-60(TB) leukemia = tested on: HL-60(TB) leukemia
SF-295 CNS = tested on: SF-295 CNS
NCI-H23 lung = tested on: NCI-H23 lung
UO-31 renal = tested on: UO-31 renal
MDA-MB-231 breast = tested on: MDA-MB-231 breast
MOLT-4 leukemia = tested on: MOLT-4 leukemia
LOX IMVI melanoma = tested on: LOX IMVI melanoma
MCF7 breast = tested on: MCF7 breast
SK-OV-3 ovarian = tested on: SK-OV-3 ovarian
ACHN renal = tested on: ACHN renal
OVCAR-4 ovarian = tested on: OVCAR-4 ovarian
MALME-3M melanoma = tested on: MALME-3M melanoma
SK-MEL-5 melanoma = tested on: SK-MEL-5 melanoma
NCI-H460 lung = tested on: NCI-H460 lung

| SMILES | TGI (MDA-MB-435) | TGI (DU-145 prostate) | TGI (SNB-75 CNS) | TGI (SF-539 CNS) | TGI (HL-60(TB) leukemia) | TGI (SF-295 CNS) | TGI (NCI-H23 lung) | TGI (UO-31 renal) | TGI (MDA-MB-231 breast) | TGI (MOLT-4 leukemia) | TGI (LOX IMVI melanoma) | TGI (MCF7 breast) | TGI (SK-OV-3 ovarian) | TGI (ACHN renal) | TGI (OVCAR-4 ovarian) | TGI (MALME-3M melanoma) | TGI (SK-MEL-5 melanoma) | TGI (NCI-H460 lung) |
| --- | --- | --- | --- | --- | --- | --- | --- | --- | --- | --- | --- | --- | --- | --- | --- | --- | --- | --- |
| Cc1[nH]c(=O)nc2c1C(=O)N(C(C)C)C(NC(C)C)S2 (stereo unspecified) | > 100 µM | > 100 µM | > 100 µM | > 100 µM | > 100 µM | > 100 µM | > 100 µM | > 100 µM | > 100 µM | > 100 µM | > 100 µM | > 100 µM | > 100 µM | > 100 µM | > 100 µM | > 100 µM | > 100 µM | – |
| CCOC(=O)C1(C/C=C\CBr)CCCCCCC1=O (stereo unspecified) | > 100 µM | > 100 µM | > 100 µM | > 100 µM | > 100 µM | > 100 µM | > 100 µM | > 100 µM | > 100 µM | > 100 µM | > 100 µM | > 100 µM | > 100 µM | > 100 µM | > 100 µM | > 100 µM | > 100 µM | – |
| O=C1NC(N2CCCC(CO)C2)=N/C1=C\c1ccc(O)cc1 (stereo unspecified) | > 100 µM | > 100 µM | > 100 µM | > 100 µM | > 100 µM | > 100 µM | > 100 µM | > 100 µM | > 100 µM | > 100 µM | > 100 µM | > 100 µM | > 100 µM | > 100 µM | > 100 µM | > 100 µM | > 100 µM | – |
| C[N+]12C=CC=C1C(N1CCCC1)c1sc(-c3ccc(Cl)cc3)cc12 (stereo unspecified) | 29.1 µM | 32.6 µM | 25.7 µM | – | – | 43.7 µM | – | > 100 µM | 35.5 µM | 53.5 µM | 29.5 µM | 28.3 µM | 32.8 µM | > 100 µM | 33.4 µM | 31.1 µM | 31.8 µM | 32.6 µM |
| NC(N)=NS(=O)(=O)c1ccc(NC(=O)c2c3ccccc3nc3ccccc23)cc1 | > 100 µM | > 100 µM | > 100 µM | > 100 µM | – | > 100 µM | > 100 µM | > 100 µM | > 100 µM | > 100 µM | > 100 µM | > 100 µM | > 100 µM | > 100 µM | > 100 µM | > 100 µM | > 100 µM | > 100 µM |
| COC(=O)[C@H]1ON2O[C@H](OC3CCCC[C@@H]3c3ccccc3)C[C@@H]3CC[C@H]1[C@@]32C (stereo partly specified) | > 100 µM | > 100 µM | > 100 µM | – | 98.5 µM | > 100 µM | > 100 µM | > 100 µM | > 100 µM | > 100 µM | > 100 µM | > 100 µM | > 100 µM | > 100 µM | > 100 µM | > 100 µM | > 100 µM | > 100 µM |
| COc1cc(C=Nc2ccc(Oc3ccc(Cl)cc3)c(Cl)c2)cc(OC)c1OC | > 100 µM | 38.6 µM | 57.9 µM | 35.2 µM | 48.6 µM | 37.3 µM | 42 µM | 23.2 µM | 35 µM | 76 µM | 32.2 µM | 95.5 µM | – | 83.8 µM | 62.3 µM | 35.8 µM | 34.9 µM | 39.9 µM |
| C=CCn1c(=O)c(-c2ccccc2)c(O)c2ccccc21 | > 100 µM | > 100 µM | > 100 µM | > 100 µM | > 100 µM | > 100 µM | > 100 µM | > 100 µM | > 100 µM | > 100 µM | > 100 µM | > 100 µM | – | > 100 µM | > 100 µM | > 100 µM | > 100 µM | > 100 µM |
| C[C@H]1C(=O)C2=C[C@H]1CCC(=O)[C@]1(C)CCCC(C)(C)[C@H]1C[C@H]2O | > 100 µM | 96.8 µM | 82.8 µM | 28.8 µM | 39.7 µM | > 100 µM | 57.7 µM | 75.1 µM | 20.2 µM | > 100 µM | 35.4 µM | 27.3 µM | > 100 µM | 31.6 µM | > 100 µM | 43.5 µM | – | 58.9 µM |
| CCOc1c(OC)cc(CNNc2nccs2)cc1OC | > 100 µM | > 100 µM | > 100 µM | > 100 µM | > 100 µM | > 100 µM | > 100 µM | > 100 µM | > 100 µM | > 100 µM | > 100 µM | > 100 µM | – | > 100 µM | > 100 µM | > 100 µM | 92.7 µM | > 100 µM |
| COCN1C(=O)[C@@H]2C[C@@H](OC/C=C/CBr)CN2C(=O)c2ccccc21 | 50.9 µM | 43.9 µM | 27.9 µM | 40.8 µM | > 100 µM | 46.5 µM | 81.5 µM | 40.5 µM | 55.1 µM | > 100 µM | 13.1 µM | 33.7 µM | 88.5 µM | 54.8 µM | 35.7 µM | 35.3 µM | 34.8 µM | – |
| CN1CCN(c2nc3c(c(=O)n(C)c(=O)n3C)n2C)CC1 | > 100 µM | > 100 µM | > 100 µM | – | > 100 µM | > 100 µM | > 100 µM | > 100 µM | > 100 µM | – | > 100 µM | > 100 µM | > 100 µM | > 100 µM | > 100 µM | > 100 µM | > 100 µM | > 100 µM |
